Measurements as given in patent publication US20210353751A1, “COMBINATION THERAPIES FOR TREATMENT OF INFLAMMATORY DISEASES” (The Regents of The University of California, priority 2018, published 2021).
Read-outs that look alike come from different tables or passages of the source.

What was measured:
Newly-diabetic NOD mice [1] = experiment: Homotaurine monotherapy dose-finding study in newly-diabetic NOD mice; format: in vivo
Experimental: To determine whether homotaurine had therapeutic potential in NOD mice, the inventors performed a dose finding study with homotaurine dissolved in the drinking water at 0, 0.08, 0.25 or 0.75 mg/ml. […] Newly-diabetic NOD mice that were untreated rapidly progressed to severe hyperglycemia within 1 week. […] Thus, oral homotaurine monotherapy at an appropriate dose can quickly correct hyperglycemia and maintain normoglycemia for a short period, but most of the treated mice become hyperglycemic again.
A dose finding study was performed with homotaurine dissolved in the drinking water at 0, 0.08, 0.25 or 0.75 mg/ml to determine the therapeutic potential in NOD mice. […] Newly-diabetic NOD mice that were untreated rapidly progressed to severe hyperglycemia within 1 week. […] Thus, oral homotaurine monotherapy at an appropriate dose can quickly correct hyperglycemia but most of the treated mice become hyperglycemic again within a short period.
NOD mice (Taconic Farms, Germantown) were housed in a specific pathogen-free facility. Only female NOD mice were used.
Blood glucose levels were monitored 2-3 times weekly using a One Touch Ultrasensitive monitor and those with two consecutive daily blood glucose levels between 250-300 mg/dL were entered into the study. The mice were randomly assigned to groups that continually received water containing 0, 0.08, 0.25, or 0.75 mg/ml homotaurine, pH 7.2 through their drinking water. Each mouse consumed on average about 4-5 ml of water per day. Water bottles were changed every five days. Treated mice with two consecutive blood glucose readings below 250 mg/dL were considered to be in remission after which two consecutive blood glucose readings >250 mg/dL was considered disease relapse.

[2] = tested on: newly severely hyperglycemic NOD mice; experiment: Combined GABA-R agonist and low-dose anti-CD3 treatment in severely hyperglycemic NOD mice (remission/relapse); format: in vivo; conditions: homotaurine alone 0.25 mg/ml; severe hyperglycemia at entry
Experimental: The inventors hypothesized that combining GABA-Receptor activation with an immunosuppressant may allow effective disease reversal using lower dosages of the immunosuppressant and thereby reduce the possibility of side effects. The inventors chose to test anti-CD3 since it is a prototypic immunosuppressant that is in clinical use. In pilot studies, the inventors developed a low-dose anti-CD3 treatment protocol (35 μg anti-CD3 on three consecutive days), which reversed hyperglycemia in about a third of newly-diabetic NOD mice with severe hyperglycemia at entry into the study (blood glucose >350 mg/dL). The inventors then treated newly severely hyperglycemic NOD mice with low-dose anti-CD3 together with homotaurine (0.25 mg/ml), GABA (6 mg/ml), or plain water.
For these studies, the inventors initiated treatment when the NOD mice had blood glucose levels >350 mg/dL. […] Treated mice with two consecutive blood glucose readings below 250 mg/dL were considered to be in remission after which two consecutive blood glucose readings >250 mg/dL was considered to be disease relapse […]
Treatment was initiated when the NOD mice had blood glucose levels >350 mg/dL. […] Treated mice with two consecutive blood glucose readings below 250 mg/dL were considered to be in remission after which two consecutive blood glucose readings >250 mg/dL was considered to be disease relapse.

[3] = tested on: PLN mononuclear cells of NOD mice; experiment: Pancreatic lymph node (PLN) mononuclear cell analysis; format: in vivo; conditions: treated at 15-18 weeks in age, studied 3 weeks later; monotherapies relative to control, combination relative to monotherapies
Source text: This increase was significant for CD4^+CD25^+Foxp3^+ cells in comparison to homotaurine monotherapy. Thus, combined therapy also elevated the average frequencies of CD4^+ and CD8^+ Tregs within the target tissue/PLN of NOD mice

GABA-R = conditions: relative to GABA; cited from earlier work
[4] = after intravenous or intraperitoneal injection; cited from earlier work
[5] = tested on: splenic Tregs of SJL mice; conditions: homotaurine monotherapy, EAE model; cited from earlier work
Newly-diabetic NOD mice [6] = experiment: Anti-CD3 plus GABA in newly-diabetic NOD mice: glycemia and islet staining (insulin/glucagon) after three months; format: in vivo
Experimental: Newly-diabetic NOD mice (blood glucose 220-300 mg/dL on two consecutive days) were treated with anti-CD3 (non-Fc binding anti-CD3ε F(ab′)2 from BioExpress, 40 μg/day intravenously for 5 consecutive days) and immediately began one of the following additional treatments: • (1) control PBS IP; • (2) GABA (dissolved in PBS, 250 μg/kg, IP); • (3) control plain drinking water; or • (4a) drinking water containing 6 mg/ml GABA or (4b) drinking water containing 20 mg/ml GABA. Mice drink approximately 4 ml/day, so Group 4a consumed approximately 24 mg/day of GABA and Group 4b consumed approximately 80 mg/day of GABA.
Three months after beginning treatment, pancreata from the mice were removed and sections (4 μm) were stained with Alexa Fluor 647-anti-glucagon (shown in red in the Figures) and Alexa-488 conjugated with anti-insulin (shown in green in the Figures), followed by staining with 4′,6-diamidino-2-phenylindole (“DAPI”). Images were captured using a fluorescent microscope and at least 30 islets from each group of mice (n=4) were analyzed. Data are representative islet images or expressed as the mean±standard deviation (“SD”) of each group.

Newly-diabetic NOD mice [7] = conditions: oral GABA at 20 mg/ml, monotherapy; cited from earlier work
[8] = homotaurine 0.08 mg/ml in drinking water
[9] = homotaurine 0.25 mg/ml in drinking water

## NCCCS(=O)(=O)O [homotaurine]
Newly-diabetic NOD mice [1]; homotaurine 0, 0.08, 0.25 or 0.75 mg/ml in drinking water
  water or food consumption or body weights over the course of the study: None of the mouse groups under study differed
Newly-diabetic NOD mice [1]; [8]
  delay of disease progression (mean): 2.2 weeks
  effect on disease progression: delayed disease progression for a very brief period
Newly-diabetic NOD mice [1]; [9]
  restoration of normoglycemia: restored normoglycemia in all mice
  time at which most mice became hyperglycemic again: ≤ 6 weeks
Newly-diabetic NOD mice [1]; homotaurine 0.75 mg/ml in drinking water, on average less effective than 0.25 mg/ml
  effect on disease progression: some delay in disease progression
Newly-diabetic NOD mice [1]; homotaurine monotherapy 0.25 mg/ml in drinking water
  mean remission period for all mice: 14 weeks
[2]
  induction of remission: unable to induce remission
[3]
  frequency of CD4+CD25+Foxp3+ cells in the PLN: significantly increased
  frequency of CD8+CD122+PD-1+ cells in the PLN: significantly increased
GABA-R
  affinity for GABA-R, higher than GABA: > 3 fold
[4]
  half-life in plasma compared with GABA: longer half-life than GABA
[5]
  frequency of splenic CD4+Foxp3+ Tregs: increased the frequency
  frequency of splenic CD8+CD122+PD-1+ Tregs: increased the frequency

## NCCCC(=O)O [GABA, γ-aminobutyric acid]
Newly-diabetic NOD mice [6]; GABA 20 mg/ml in drinking water with anti-CD3
  numbers of bihormonal cells versus groups treated with lower dosages of GABA: greater numbers of bihormonal cells
Newly-diabetic NOD mice [6]; all GABA-treated groups (250 μg/kg IP, 6 or 20 mg/ml in water), all with anti-CD3
  frequency of bihormonal glucagon+ insulin+ cells versus control groups: significantly increased
Newly-diabetic NOD mice [6]; highest GABA dose (20 mg/ml in drinking water) with anti-CD3
  increase in the frequency of insulin+ cells per islet relative to control groups who received anti-CD3 alone: 26 fold
[4]
  half-life in plasma: 20 min
Newly-diabetic NOD mice [7]
  restoration of normoglycemia: restored normoglycemia in all mice
  time at which mice became hyperglycemic again: generally within five weeks
